Data from patent US20210181182A1, “METHOD FOR IDENTIFICATION OF PERTURBAGENS OF PARTICULAR BIOLOGICAL PROCESSES AND CELL SYSTEMS WITHIN LIVING CELLS” (priority 2018, published 2021).
Read-outs that look alike come from different tables or passages of the source. Marks after values point to notes of the source that are not given here.

Tests used:
[1] = system: mitochondrial electron transport chain (mETC); experiment: FACTORIAL assay: similarity of TFAP to the consensus (invariant) mETC TFAP; format: cell-based, human; conditions: HepG2, 24 h incubation; each value at the concentration [uM]
[2] = system: HG19/HepG2 cells; format: cell-based
Description: Cell viability was evaluated by the XTT (2,3-Bis-(2-Methoxy-4-Nitro-5-Sulfophenyl)-2H-Tetrazolium-5-Carboxanilide) assay (ATCC) in HG19/HepG2 cells. As a baseline, cells are used that were treated with corresponding dilutions of the vehicle (DMSO). The viability data are an average of two replicates. The viability threshold was set at 80% viability.

[3] = system: mitochondria membrane potential; conditions: HepG2, 1-hour incubation at concentrations below 60 μM; cited from earlier work
[4] = system: HepG2 cells; experiment: FACTORIAL assay: transition of the TFAP signature of glitazones with concentration; format: cell-based, human; conditions: HepG2, 24-hour treatment
[5] = in humans; cited from earlier work
[6] = system: HepG2 cells; experiment: FACTORIAL assay: query of TFAPs against reference compound signatures of the Attagene TFAP database; format: cell-based, human; conditions: HepG2, 24 h
[7] = system: ubiquitin (Ub)/proteasome pathway (UPP); experiment: FACTORIAL assay: similarity of TFAP to the consensus UPP TFAP; format: cell-based, human
[8] = system: CDK; format: cell-based, human; conditions: HepG2, 24 h

In the case of N.N.[Cl][Pt][Cl] [Cisplatin, reference compound], the “Pearson correlation with the mETC TFAP, r” value [1] is given as 0.824, the “cell numbers at the end of incubation” value [2] is given as “significantly reduced cell numbers” and the “MMP assay hitCall” value [3] is given as 0*.
For Cc1c(C)c2c(c(C)c1O)CCC(C)(COc1ccc(CC3SC(=O)NC3=O)cc1)O2 (stereo not shown) [Troglitazone], the “concentration of transformation into tertiary signature” value [4] is given as 60 µM, the “concentration of transformation of primary TFAP into secondary TFAP (threshold for off-target effects)” value [4] is given as 20 µM and the maximum plasma concentration [5] is given as 6.4 µM. The cell death [2] was “caused cell death” and the “similarity r with the TFAP for hydrogen peroxide” value ([6]; at 60 uM) was > 0.8.
With triphenyltin the “retrieved by querying the Attagene dataset with the invariant UPP signature” value ([7]; HepG2, ToxCast TFAP dataset) was “retrieved”.
In the case of CCc1cnn2c(NCc3ccc[n+]([O-])c3)cc(N3CCCC[C@H]3CCO)nc12 [Dinaciclib, reference compound], the “similarity r to the invariant signature for CDK inhibitors” value ([8]; over three logs of concentrations) is reported as > 0.85.
With [Cl][Cd][Cl] [cadmium chloride] the “retrieved by querying the Attagene dataset with the invariant UPP signature” value [7] was “retrieved”.
For CCN(CC)C(=O)c1ccc(Nc2nc(OCC3CCCCC3)c3[nH]cnc3n2)cc1 [NU6140, reference compound], the “concentration with signature similar to the invariant signature for CDK inhibitors” value [8] was 6.7 µM and the “similarity r to the signature for a cadmium salt” value ([6]; at 20 uM) was 0.71.
